How the values were obtained:
[1] = test system: CT26 colorectal cancer; test: Combination therapy in CT26 mouse colorectal cancer model; assay type: in vivo; settings: APG-1387 0.2 mg/kg i.v. once daily, docetaxel 8 mg/kg i.p. once weekly, anti-PD-1 200 μg/mouse i.p. twice weekly
Method: (§1) Cell inoculation method was used to establish a […] tumor-immunized normal mouse subcutaneous homograft tumor model: tumor cells in logarithmic growth phase were collected, counted, and then resuspended in 1×PBS. The concentration of the cell suspension was adjusted to 2.5-5×10^7/mL. Tumor cells, 5-10×10^6/0.2 mL/mouse, were inoculated subcutaneously in the right back of the immunized normal mouse with a 1 mL syringe ([…]). All animal experimental operations were strictly in accordance with standards for use and management of laboratory animals by Gima Gene Co., Ltd and Suzhou Yasheng Pharmaceutical Co., Ltd. Relevant parameters were calculated with reference to China's NMPA “Guidelines for Non-clinical Research Techniques of Cytotoxic Antitumor Drugs”.
Animal weight and tumor size were measured twice a week during the experiment. Animals were observed daily for status and the occurrence of death. Routine monitoring included the effects of tumor growth and treatment on the normal behaviors of animals, specifically including the activity, feeding and drinking, weight gain or loss, eyes, clothing hair, as well as other abnormalities of the laboratory animals. The deaths and clinical symptoms observed during the experiment were recorded in the original data. The whole process of administration, measurement of mouse weight and tumor volume was carried out in an ultra-clean bench. According to requirements of the experimental program, plasma and tumor tissue were collected, weighed and photographed for record after the end of last administration. Plasma and tumor samples were frozen at −80° C. for later use.
(§2) Tumor volume (TV) was calculated as TV=a×b^2/2, wherein a and b represented the length and width of tumor measurement, respectively.
(§3) Relative tumor volume (RTV) was calculated as RTV=Vt/V1, wherein V1 was the tumor volume at the time of grouping administration, and Vt was the tumor volume measured on day t after administration.
The evaluation index of anti-tumor activity was relative tumor proliferation rate T/C (%), and was calculated as: relative tumor proliferation rate T/C (%)=(TRTV/CRTV)×100%, wherein TRTV was RTV in treatment group, and CRTV was RTV in vehicle control group.
Tumor remission rate (%) was the number of SD (stable disease), PR (partial regression) and CR (complete regression) in tumor-bearing mice after treatment divided by the total number of mice in that group×100%. CR refers to the complete regression of the tumor, which means the tumor is inaccessible after treatment. PR refers to the partial regression of the tumor, which means tumor volume becomes smaller than before treatment. SD refers to stable tumor progression, which means tumor volume is the same as before treatment. Change of body weight (%)=(measurement of body weight−body weight when grouping)/body weight when grouping×100%.
Efficacy evaluation criteria: according to China's NMPA “Guidelines for Non-clinical Research Techniques of Cytotoxic Antitumor Drugs” (November 2006), T/C (%) value 40% and p<0.05 by statistical analysis were considered as efficacious. If the weight loss of mice exceeded 20%, or the drug-related death percentage exceeded 20%, the drug dose was considered to be severely toxic.
According to Clarke R., Issues in experimental design and endpoint analysis in the study of experimental cytotoxic agents in vivo in breast cancer and other models [J].
A tumor model of CT26 colorectal cancer mouse was established, and the combined anti-tumor effect of APG-1387 with anti-PD-1 antibody and docetaxel was evaluated on this model. The administration regimen was as follows:
APG-1387 monotherapy group: 0.2 mg/kg, intravenous injection, once daily for a total of 17 days;
Docetaxel monotherapy group: 8 mg/kg, intraperitoneal injection, once weekly for a total of 17 days;
Anti-PD-1 antibody monotherapy group: 200 μg/mouse, intraperitoneal injection, twice weekly for a total of 2.5 weeks (i.e., 17 days); […]

[2] = test system: spleen cells; test: Activation of spleen cells of healthy C57BL/6 mice in vivo; settings: 0.05, 0.2 and 0.8 mg/kg i.p. qd x 7 doses
Method: Next, we intraperitoneally administered different dosages of APG-1387 to healthy C57BL/6 mice every day. Each group has 3 mice. After 7 days of continuous administration, the spleen was taken to obtain a single cell suspension. NK, macrophage, dendritic cells and T cells were analyzed by flow cytometry to obtain the proportion of these subsets, thus evaluate the effect of APG-1387 on each immune cell subpopulation.

[3] = test system: effector memory T cells and NK cells; test: Lymphocyte analysis (flow cytometry) in MC38 tumor-bearing mice; assay type: in vivo, mouse; settings: MC38 model; APG-1387 0.2 mg/kg
Method: In the experiment of tumor-infiltrated lymphocyte analysis, tissue samples such as spleen, draining lymph node, ascites, tumor or other tissues were collected 24 hours after the last drug administration. A single cell suspension of the spleen and draining lymph nodes was obtained, and the red blood cells were lysed after centrifugation, and the cells were filtered, followed by flow cytometric staining and flow cytometry. The tumor tissue was cut and centrifuged, and the tissue was digested, the cells were filtered. Ficoll was used to separate individual nuclei. Individual nuclei were collected for corresponding antibody flow staining and flow cytometry Ascites samples were collected and centrifuged, and the cells were filtered and subjected to flow cytometry staining and flow cytometry.
The spleen, draining lymph nodes and tumor tissues of MC38 tumor-bearing mice were collected 24 hours after the last administration. Ascites of ID8-Luc tumor mice, tumor tissues of PLC/PRF/5 tumor mice were subjected to tumor infiltrating lymphocyte analysis. The proportion of lymphocytes in the APG-1387 treatment group and control group was analyzed to explore the potential mechanism of anti-tumor effect of APG-1387 combined with anti-PD-1 antibody.

[4] = test system: MC38 colon cancer; test: Tumor growth in MC38 homologous mouse colon cancer model; assay type: in vivo
Method: as §1, §2, §3
The evaluation index of anti-tumor activity was relative tumor proliferation rate T/C (%), and was calculated as: relative tumor proliferation rate T/C (%)=(TRTV/CRTV)×100%, wherein TRTV was RTV in treatment group, and CRTV was RTV in vehicle control group. […]

[5] = test system: Murine MC38 colon cancer cells; test: Subcutaneous xenograft model of murine MC38 colon cancer; assay type: in vivo, female C57BL/6 mice; settings: MC38 s.c.
Method: • (1) APG-1387: provided by Jiangsu Ascentage Pharmaceutical Development Co., Ltd. The batch number is R12JA076140-A2 and PAPG-1387-DP-201305A. Preserved at 4° C., away from the light and sealed. APG-1387 was administered intravenously (i.v.) or intraperitoneally (i.p.) or at a dosage of 10 mL/kg. APG-1387 was dissolved in 5% castor oil/10% PEG400/85% normal saline. • (2) Anti-PD-1 antibody: purchased from BioXcell. The article number is BE0146 and BE0273. Preserved at 4° C. and sealed. The anti-PD-1 antibody was administered intraperitoneally at a concentration of 100 μg per mice or 200 μg per mice. • (3) Isotype control (anti-IgG): purchased from BioXcell, the product number is BE0089. […]
The mice were injected subcutaneously with 0.5-10×10^6 cells or in the ovary with 6×10^6 cells in situ to build the tumor xenograft model. […] For the orthotopic model, tumor growth was measured by examining in vivo fluorescence images 10 days after inoculation. […] Body weight and tumor size were measured twice per week during the experiment. […]
Using the fluorescence imaging technique, the strength of the fluorescent signal can represent the growth and metastasis of tumors in vivo.
The tumor growth curve and the animal body weight curve were plotted, with time on the X-axis and tumor volume and animal body weight on the Y-axis. […] All data were analyzed using SPSS 18.0 (*P<0.05, **P<0.01, ***P<0.001, ****P<0.0001).

Question: What does the source list for `CN[C@@H](C)C(=O)N[C@H]1CN(S(=O)(=O)c2cccc(S(=O)(=O)N3CC[C@H]4CC[C@@H](C(=O)NC(c5ccccc5)c5ccccc5)N4C(=O)[C@@H](NC(=O)[C@H](C)NC)C3)c2)CC[C@H]2CC[C@@H](C(=O)NC(c3ccccc3)c3ccccc3)N2C1=O` [APG-1387]?
Answer: T/C (%) value on day 18 after administration [1]: 105%; proportion of 9 types of immune cells in the spleen [2]: no effect; proportion of NK cells in the spleen and lymph nodes [3]: no significant effect; RTV on day 14 after administration ([4]; APG-1387 0.2 mg/kg i.v., anti-PD-1 5 mg/kg i.p., twice weekly, 2 times): 11.0 ± 1.2; T/C (%) value on day 14 after administration ([4]; day 14): 70%; median survival time [5]: 33.0 days; T/C value on the 22nd day after administration ([5]; APG-1387 0.2 mg/kg i.v., anti-PD-1 100 μg/mouse i.p., q3d x 2 doses): 69.6%

Reference: patent US12186304B2, “Method for treating cancer by combination of IAP inhibitor and modulator of immune checkpoint molecule” (ASCENTAGE PHARMA (SUZHOU) CO., LTD., priority 2018, dated 2025)
